# Measured values taken from patent US10383880B2 (Reset Therapeutics, Inc., priority 2012, dated 2019).
# Test system: Per2-dLuc U2OS reporter cells
# Test: Per2 assay for evaluating the potency of test compounds (high-throughput circadian assay)
# Format: cell-based
# Conditions: Homo sapiens, U2OS, stable U2OS reporter cells harboring Per2-dLuc; luminescence monitored over 4-5 days at 35° C.
# In short: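 After 24 h culture, U2OS cells carrying Per2-dLuc were serum-shock synchronized into explant medium with 1.0 mM luciferin (10 mM HEPES pH 7.0) and compound in 0.5% DMSO. Luminescence was recorded over 4–5 days at 35 °C. Circadian period, amplitude and phase were derived, and EC50 calculated.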
row,SMILES,EC50 [µM]
1,"CS(=O)(=O)N(CC(O)Cn1c2ccc(F)cc2c2cc(F)ccc21)c1ccccc1 (centres unmarked) [Compound 199, N-(3-(3,6-Difluoro-9H-carbazol-9-yl)-2-hydroxypropyl)-N-phenylmethanesulfonamide]",0.544
2,"CCCc1ccc(N(CC(O)Cn2c3ccc(F)cc3c3cc(F)ccc32)S(C)(=O)=O)cc1 (centres unmarked) [Compound 200, N-(3-(3,6-Difluoro-9H-carbazol-9-yl)-2-hydroxypropyl)-N-(4-propylphenyl)methanesulfonamide]",1.89
3,"CCc1ccc(N(CC(O)Cn2c3ccc(F)cc3c3cc(F)ccc32)S(C)(=O)=O)cc1 (centres unmarked) [Compound 201, N-(3-(3,6-Difluoro-9H-carbazol-9-yl)-2-hydroxypropyl)-N-(4-ethylphenyl)methanesulfonamide]",1.57
4,"CCOc1ccc(N(CC(O)Cn2c3ccc(F)cc3c3cc(F)ccc32)S(C)(=O)=O)cc1 (centres unmarked) [Compound 202, N-(3-(3,6-Difluoro-9H-carbazol-9-yl)-2-hydroxypropyl)-N-(4-ethoxyphenyl)methanesulfonamide]",2.1
5,"CCCOc1ccc(N(CC(O)Cn2c3ccc(F)cc3c3cc(F)ccc32)S(C)(=O)=O)cc1 (centres unmarked) [Compound 203, N-(3-(3,6-Difluoro-9H-carbazol-9-yl)-2-hydroxypropyl)-N-(4-propoxyphenyl)methanesulfonamide]",1.77
6,"CS(=O)(=O)N(CC(O)Cn1c2ccc(F)cc2c2cc(F)ccc21)c1ccc(-c2c[nH]cn2)cc1 (centres unmarked) [Compound 204, N-(4-(1H-Imidazol-4-yl)phenyl)-N-(3-(3,6-difluoro-9H-carbazol-9-yl)-2-hydroxypropyl)methanesulfonamide]",2.55
7,"CC(C)c1ccc(N(CC(O)Cn2c3ccc(F)cc3c3cc(F)ccc32)S(C)(=O)=O)cc1 (centres unmarked) [Compound 205, N-(3-(3,6-Difluoro-9H-carbazol-9-yl)-2-hydroxypropyl)-N-(4-isopropylphenyl)methanesulfonamide]",1.21
8,"CS(=O)(=O)N(CC(O)Cn1c2ccc(F)cc2c2cc(F)ccc21)c1ccc(OC(F)F)cc1 (centres unmarked) [Compound 206, N-(3-(3,6-Difluoro-9H-carbazol-9-yl)-2-hydroxypropyl)-N-(4-(difluoromethoxy)phenyl)methanesulfonamide]",2.85
9,"CS(=O)(=O)N(CC(O)Cn1c2ccc(F)cc2c2cc(F)ccc21)c1ccc(C2CC2)cc1 (centres unmarked) [Compound 207, N-(4-Cyclopropylphenyl)-N-(3-(3,6-difluoro-9H-carbazol-9-yl)-2-hydroxypropyl)methanesulfonamide]",2.95
10,"CCOCc1ccc(N(CC(O)Cn2c3ccc(F)cc3c3cc(F)ccc32)S(C)(=O)=O)cc1 (centres unmarked) [Compound 208, N-(3-(3,6-Difluoro-9H-carbazol-9-yl)-2-hydroxypropyl)-N-(4-(ethoxymethyl)phenyl)methanesulfonamide]",4.71
11,"COCc1ccc(N(CC(O)Cn2c3ccc(F)cc3c3cc(F)ccc32)S(C)(=O)=O)cc1 (centres unmarked) [Compound 209, N-(3-(3,6-Difluoro-9H-carbazol-9-yl)-2-hydroxypropyl)-N-(4-(methoxymethyl)phenyl)methanesulfonamide]",4.81
12,"CC(C)Oc1ccc(N(CC(O)Cn2c3ccc(F)cc3c3cc(F)ccc32)S(C)(=O)=O)cc1 (centres unmarked) [Compound 210, N-(3-(3,6-Difluoro-9H-carbazol-9-yl)-2-hydroxypropyl)-N-(4-isopropoxyphenyl)methanesulfonamide]",7.21
13,"CS(=O)(=O)N(CC(O)Cn1c2ccc(F)cc2c2cc(F)ccc21)c1ccc(C2CCC2)cc1 (centres unmarked) [Compound 211, N-(4-Cyclobutylphenyl)-N-(3-(3,6-difluoro-9H-carbazol-9-yl)-2-hydroxypropyl)methanesulfonamide]",9.24
14,"CS(=O)(=O)N(CC(O)Cn1c2ccc(F)cc2c2cc(F)ccc21)c1ccc(OC2CC2)cc1 (centres unmarked) [Compound 212, N-(4-Cyclopropoxyphenyl)-N-(3-(3,6-difluoro-9H-carbazol-9-yl)-2-hydroxypropyl)methanesulfonamide]",1.8
